# Columns and labels:
# late watergrass [1] = experiment: Test Example 1: herbicidal activity, application before weed generation under submerged conditions (Table 16, symbol A); type: in vivo, late watergrass (Echinochloa oryzicola); conditions: 320 g/ha applied herbicide
# Method in brief: (§1)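 Alluvial soil was flooded to 4 cm depth, weed seeds were sown mixed and 2.5-leaf rice seedlings were transplanted. On sowing day, the compound's emulsion, diluted in water to a set dose, was applied to the water surface. Plants grew at 25–30 °C and were scored 0–5 after three weeks.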
# Japanese bulrush [2] = experiment: Test Example 1: herbicidal activity, application before weed generation under submerged conditions (Table 16, symbol B); type: in vivo, Japanese bulrush (Schoenoplectus juncoides); conditions: 320 g/ha applied herbicide
# Method in brief: as §1
# oval-leafed pondweed [3] = experiment: Test Example 1: herbicidal activity, application before weed generation under submerged conditions (Table 16, symbol C); type: in vivo, oval-leafed pondweed (Monochoria vaginalis); conditions: 320 g/ha applied herbicide
# Method in brief: as §1
# Japanese bulrush [4] = experiment: Test Example 2: herbicidal activity, application during weed generation under submerged conditions (Table 17, symbol B); type: in vivo, Japanese bulrush (Schoenoplectus juncoides); conditions: AAH 320 g/ha; application during weed generation, submerged conditions
# Method: (§2) [Test Example 2] Herbicidal Activity Test by Application during Weed Generation under Submerged Conditions After alluvial soil was placed into 1/10000 are of Wagner pot, water was poured and mixed to form a submerged condition having a water depth of 4 cm. Seeds of late watergrass, Japanese bulrush, and oval-leafed pondweed were sowed in a mixed manner in the aforementioned pot, and the pot was placed in a greenhouse at 25° C. to 30° C. for growth of the plants. When late watergrass, Japanese bulrush, and oval-leafed pondweed were grown to one leaf stage to two leaf stage, the emulsion agent of the compound of the present invention prepared according to Formulation Example 2 was diluted with water so as to achieve a predetermined herbicide amount, and the diluted emulsion agent was applied to the surface of the water. Three weeks after the herbicide application, the effect of the herbicide on each plant was evaluated according to the criteria of Test Example 1.
# oval-leafed pondweed [5] = experiment: Test Example 2: herbicidal activity, application during weed generation under submerged conditions (Table 17, symbol C); type: in vivo, oval-leafed pondweed (Monochoria vaginalis); conditions: AAH 320 g/ha; application during weed generation, submerged conditions
# Method: as §2
# barnyard grass [6] = experiment: Test Example 3: herbicidal effect by foliage application, Wagner pot (Table 18, symbol H); type: in vivo, barnyard grass (Echinochloa crus-galli); conditions: 320 g/ha
# Method in brief: (§3)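 Plants were sown in alluvial soil held under 0.1–0.5 cm standing water and grown 14 days in a greenhouse at 25–30 °C. An emulsifiable formulation, water-diluted to the set dose, was then sprayed onto the foliage, and effects were scored three weeks later using previously defined criteria.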
# Chinese sprangletop = experiment: Test Example 3: herbicidal effect by foliage application, Wagner pot (Table 18, symbol D); type: in vivo, chinese sprangletop (Leptochloa chinensis); conditions: 320 g/ha
# Method in brief: as §3
# rice flat sedge = experiment: Test Example 3: herbicidal effect by foliage application, Wagner pot (Table 18, symbol E); type: in vivo, rice flat sedge (Cyperus iria); conditions: 320 g/ha
# Method in brief: as §3
# southern crabgrass [7] = experiment: Test Example 4: herbicidal effect by soil treatment (Table 19, symbol F); type: in vivo, southern crabgrass (Digitaria ciliaris); conditions: amount of applied herbicide 320 g/ha
# Method in brief: (§4)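 Soil-surface application: an emulsion agent diluted with water to the predetermined dose is sprayed uniformly over seeds lying under roughly 1.5 cm of sterilized diluvial soil. Boxes stay in a greenhouse at 25° C. to 30° C. Three weeks later, each species is graded on previously defined criteria.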
# green foxtail [8] = experiment: Test Example 4: herbicidal effect by soil treatment (Table 19, symbol G); type: in vivo, green foxtail (Setaria viridis); conditions: amount of applied herbicide 320 g/ha
# Method in brief: as §4
# barnyard grass [9] = experiment: Test Example 4: herbicidal effect by soil treatment (Table 19, symbol H); type: in vivo, barnyard grass (Echinochloa crus-galli); conditions: amount of applied herbicide 320 g/ha
# Method in brief: as §4
# wild oat [10] = experiment: Test Example 4: herbicidal effect by soil treatment (Table 19, symbol I); type: in vivo, wild oat (Avena fatua); conditions: amount of applied herbicide 320 g/ha
# Method in brief: as §4
# blackgrass [11] = experiment: Test Example 4: herbicidal effect by soil treatment (Table 19, symbol J); type: in vivo, blackgrass (Alopecurus myosuroides); conditions: amount of applied herbicide 320 g/ha
# Method in brief: as §4
# Italian ryegrass [12] = experiment: Test Example 4: herbicidal effect by soil treatment (Table 19, symbol K); type: in vivo, Italian ryegrass (Lolium multiflorum); conditions: amount of applied herbicide 320 g/ha
# Method in brief: as §4
# velvetleaf [13] = experiment: Test Example 4: herbicidal effect by soil treatment (Table 19, symbol M); type: in vivo, velvetleaf (Abutilon theophrasti); conditions: amount of applied herbicide 320 g/ha
# Method in brief: as §4
# redroot pigweed [14] = experiment: Test Example 4: herbicidal effect by soil treatment (Table 19, symbol N); type: in vivo, redroot pigweed (Amaranthus retroflexus); conditions: amount of applied herbicide 320 g/ha
# Method in brief: as §4
# southern crabgrass [15] = experiment: Test Example 5: herbicidal effect by foliage application, plastic box (Table 20, symbol F); type: in vivo, southern crabgrass (Digitaria ciliaris); conditions: 320 g/ha
# Method in brief: (§5)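 Sow seeds spot-wise in sterilized diluvial soil; cover with ~1.5 cm soil. Grow 14 days in greenhouse, 25° C. to 30° C. Spray foliage with emulsion diluted to predetermined amount. Rate effect after 3 weeks.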
# green foxtail [16] = experiment: Test Example 5: herbicidal effect by foliage application, plastic box (Table 20, symbol G); type: in vivo, green foxtail (Setaria viridis); conditions: 320 g/ha
# Method in brief: as §5
# barnyard grass [17] = experiment: Test Example 5: herbicidal effect by foliage application, plastic box (Table 20, symbol H); type: in vivo, barnyard grass (Echinochloa crus-galli); conditions: 320 g/ha
# Method in brief: as §5
# wild oat [18] = experiment: Test Example 5: herbicidal effect by foliage application, plastic box (Table 20, symbol I); type: in vivo, wild oat (Avena fatua); conditions: foliage application, 320 g/ha, three weeks after application
# Method in brief: as §5
# blackgrass [19] = experiment: Test Example 5: herbicidal effect by foliage application, plastic box (Table 20, symbol J); type: in vivo, blackgrass (Alopecurus myosuroides); conditions: foliage application, 320 g/ha, three weeks after application
# Method in brief: as §5
# Italian ryegrass [20] = experiment: Test Example 5: herbicidal effect by foliage application, plastic box (Table 20, symbol K); type: in vivo, Italian ryegrass (Lolium multiflorum); conditions: foliage application, 320 g/ha, three weeks after application
# Method in brief: as §5
# windgrass = experiment: Test Example 5: herbicidal effect by foliage application, plastic box (Table 20, symbol L); type: in vivo, windgrass (Apera spica-venti); conditions: foliage application, 320 g/ha, three weeks after application
# Method in brief: as §5
# velvetleaf [21] = experiment: Test Example 5: herbicidal effect by foliage application, plastic box (Table 20, symbol M); type: in vivo, velvetleaf (Abutilon theophrasti); conditions: 320 g/ha
# Method in brief: as §5
# redroot pigweed [22] = experiment: Test Example 5: herbicidal effect by foliage application, plastic box (Table 20, symbol N); type: in vivo, redroot pigweed (Amaranthus retroflexus); conditions: 320 g/ha
# Method in brief: as §5
# lambsquarters [23] = experiment: Test Example 5: herbicidal effect by foliage application, plastic box (Table 20, symbol O); type: in vivo, lambsquarters (Chenopodium album); conditions: 320 g/ha
# Method in brief: as §5
# chickweed = experiment: Test Example 5: herbicidal effect by foliage application, plastic box (Table 20, symbol P); type: in vivo, common chickweed (Stellaria media); conditions: foliage application, 320 g/ha, three weeks after application
# Method in brief: as §5
# persian speedwell = experiment: Test Example 5: herbicidal effect by foliage application, plastic box (Table 20, symbol R); type: in vivo, Persian speedwell (Veronica persica); conditions: foliage application, 320 g/ha, three weeks after application
# Method in brief: as §5
# late watergrass [24] = experiment: Test Example 2: herbicidal activity, application during weed generation under submerged conditions (Table 17, symbol A); type: in vivo, late watergrass (Echinochloa oryzicola); conditions: AAH 320 g/ha; application during weed generation, submerged conditions
# Method: as §2
# lambsquarters [25] = experiment: Test Example 4: herbicidal effect by soil treatment (Table 19, symbol O); type: in vivo, lambsquarters (Chenopodium album); conditions: amount of applied herbicide 320 g/ha
# Method in brief: as §4
# [26] = foliage application, three weeks after application
# [27] = foliage application after 14-day growth, evaluated three weeks after application
smiles,measurement,setting,value
CCOc1ccc(-c2sc3ccccc3c2-c2c(O)c(C)nn(C)c2=O)cc1 [1-013],Herbicidal effect on A: late watergrass (grade 0-5),late watergrass [1],4 (Herbicidal rate of 70% or more and less than 90%)
same,Herbicidal effect on B: Japanese bulrush (grade 0-5),Japanese bulrush [2],4 (Herbicidal rate of 70% or more and less than 90%)
same,Herbicidal effect on C: oval-leafed pondweed (grade 0-5),oval-leafed pondweed [3],3 (Herbicidal rate of 40% or more and less than 70%)
same,"herbicidal effect rating, B: Japanese bulrush",Japanese bulrush [4],3 (Herbicidal rate of 40% or more and less than 70%)
same,"herbicidal effect rating, C: oval-leafed pondweed",oval-leafed pondweed [5],3 (Herbicidal rate of 40% or more and less than 70%)
same,"herbicidal effect on H (barnyard grass), rating 0-5",barnyard grass [6],5 (Herbicidal rate of 90% or more (almost completely withered))
same,"herbicidal effect on D (Chinese sprangletop), rating 0-5",Chinese sprangletop,1 (Herbicidal rate of 5% or more and less than 20%)
same,"herbicidal effect on E (rice flat sedge), rating 0-5",rice flat sedge,5 (Herbicidal rate of 90% or more (almost completely withered))
same,"herbicidal effect rating, F: southern crabgrass",southern crabgrass [7],0 (Herbicidal rate of 5% or less (almost no effect))
same,"herbicidal effect rating, G: green foxtail",green foxtail [8],5 (Herbicidal rate of 90% or more (almost completely withered))
same,"herbicidal effect rating, H: barnyard grass",barnyard grass [9],4 (Herbicidal rate of 70% or more and less than 90%)
same,"herbicidal effect rating, I: wild oat",wild oat [10],0 (Herbicidal rate of 5% or less (almost no effect))
same,"herbicidal effect rating, J: blackgrass",blackgrass [11],0 (Herbicidal rate of 5% or less (almost no effect))
same,"herbicidal effect rating, K: Italian ryegrass",Italian ryegrass [12],0 (Herbicidal rate of 5% or less (almost no effect))
same,"herbicidal effect rating, M: velvetleaf",velvetleaf [13],0 (Herbicidal rate of 5% or less (almost no effect))
same,"herbicidal effect rating, N: redroot pigweed",redroot pigweed [14],3 (Herbicidal rate of 40% or more and less than 70%)
same,"herbicidal effect grade, F: southern crabgrass",southern crabgrass [15]; [26],0 (Herbicidal rate of 5% or less (almost no effect))
same,"herbicidal effect grade, G: green foxtail",green foxtail [16]; [26],5 (Herbicidal rate of 90% or more (almost completely withered))
same,"herbicidal effect grade, H: barnyard grass",barnyard grass [17]; [26],4 (Herbicidal rate of 70% or more and less than 90%)
same,"herbicidal effect grade, I: wild oat",wild oat [18],0 (Herbicidal rate of 5% or less (almost no effect))
same,"herbicidal effect grade, J: blackgrass",blackgrass [19],0 (Herbicidal rate of 5% or less (almost no effect))
same,"herbicidal effect grade, K: Italian ryegrass",Italian ryegrass [20],3 (Herbicidal rate of 40% or more and less than 70%)
same,"herbicidal effect grade, L: windgrass",windgrass,0 (Herbicidal rate of 5% or less (almost no effect))
same,"herbicidal effect grade, M: velvetleaf",velvetleaf [21]; [26],5 (Herbicidal rate of 90% or more (almost completely withered))
same,"herbicidal effect grade, N: redroot pigweed",redroot pigweed [22]; [26],3 (Herbicidal rate of 40% or more and less than 70%)
same,"herbicidal effect grade, O: lambsquarters",lambsquarters [23]; [26],3 (Herbicidal rate of 40% or more and less than 70%)
same,"herbicidal effect grade, P: chickweed",chickweed,5 (Herbicidal rate of 90% or more (almost completely withered))
same,"herbicidal effect grade, R: persian speedwell",persian speedwell,5 (Herbicidal rate of 90% or more (almost completely withered))
COc1ccc2c(-c3c(O)c(C)nn(C)c3=O)c(-c3ccc(OC(F)(F)F)cc3)sc2c1 [3-170],"herbicidal effect rating, A: late watergrass",late watergrass [24],2 (Herbicidal rate of 20% or more and less than 40%)
same,"herbicidal effect rating, B: Japanese bulrush",Japanese bulrush [4],0 (Herbicidal rate of 5% or less (almost no effect))
same,"herbicidal effect rating, C: oval-leafed pondweed",oval-leafed pondweed [5],0 (Herbicidal rate of 5% or less (almost no effect))
same,herbicidal effect on barnyard grass (H),barnyard grass [6],3 (Herbicidal rate of 40% or more and less than 70%)
same,herbicidal effect on Chinese sprangletop (D),Chinese sprangletop,0 (Herbicidal rate of 5% or less (almost no effect))
same,herbicidal effect on rice flat sedge (E),rice flat sedge,0 (Herbicidal rate of 5% or less (almost no effect))
same,"Herbicidal effect by soil treatment, F: southern crabgrass",southern crabgrass [7],0 (Herbicidal rate of 5% or less (almost no effect))
same,"Herbicidal effect by soil treatment, G: green foxtail",green foxtail [8],0 (Herbicidal rate of 5% or less (almost no effect))
same,"Herbicidal effect by soil treatment, H: barnyard grass",barnyard grass [9],0 (Herbicidal rate of 5% or less (almost no effect))
same,"Herbicidal effect by soil treatment, M: velvetleaf",velvetleaf [13],0 (Herbicidal rate of 5% or less (almost no effect))
same,"Herbicidal effect by soil treatment, N: redroot pigweed",redroot pigweed [14],4 (Herbicidal rate of 70% or more and less than 90%)
same,"Herbicidal effect by soil treatment, O: lambsquarters",lambsquarters [25],1 (Herbicidal rate of 5% or more and less than 20%)
same,herbicidal effect on F: southern crabgrass (evaluation grade 0-5),southern crabgrass [15]; [27],0 (Herbicidal rate of 5% or less (almost no effect))
same,herbicidal effect on G: green foxtail (evaluation grade 0-5),green foxtail [16]; [27],0 (Herbicidal rate of 5% or less (almost no effect))
same,herbicidal effect on H: barnyard grass (evaluation grade 0-5),barnyard grass [17]; [27],0 (Herbicidal rate of 5% or less (almost no effect))
same,herbicidal effect on M: velvetleaf (evaluation grade 0-5),velvetleaf [21]; [27],3 (Herbicidal rate of 40% or more and less than 70%)
same,herbicidal effect on N: redroot pigweed (evaluation grade 0-5),redroot pigweed [22]; [27],4 (Herbicidal rate of 70% or more and less than 90%)
same,herbicidal effect on O: lambsquarters (evaluation grade 0-5),lambsquarters [23]; [27],5 (Herbicidal rate of 90% or more (almost completely withered))
